“Also recorded” adds a separate entry of the source. Read-outs that look alike come from different tables or passages of the source.
Legend:
Assay type in all cases: cell-based, human
HepG2 = experiment: MTT cell proliferation assay; conditions: for IC50: MTT, mean ± SEM
Experimental: (§1) Four cancerous cell lines (human triple negative breast cancer cell line MDA-MB-231, human cervical cancer cell line HeLa, human prostate cancer cell line PC3, and human liver cancer cell line HepG2) and the human normal lung fibroblast cell line, WI-38, were obtained from the central cell repository of National Centre for Cell Science (NCCS), Pune. The cell lines were cultured in a T25 flask with Dulbecco's modified Eagle medium (DMEM), supplemented with 10% foetal bovine serum, nonessential amino acids, 1 mM sodium pyruvate, 2 mM L-glutamine, 100 mg/L streptomycin, […] penicillin, and 50 mg/L gentamycin in a 37°C humidified incubator containing 5% CO2. […] As DMSO has been used to prepare the different concentrations of the compounds, we have added 0.5% DMSO in the control setup. After the incubation period, media was discarded from the 96-well plates and washed with 1 × PBS solution twice. Then, MTT (100 µL; 0.5 mg/mL) was added to each well and incubated in a humidified incubator containing 5% CO2 at 37°C for 4 h. After discarding the supernatant, the purple-colored formazan crystals formed in the wells were dissolved with 100 μL DMSO per well and the absorbance was estimated at 490 nm using a microplate reader. The experiments were repeated three times, and the cell viability was expressed as a percentage of the control experimental setup. […] For all the MTT assays, three fully independent experiments have been performed, and each experiment has been conducted with biological triplicate samples.

HeLa = experiment: MTT cell proliferation assay; conditions: 24 h; for IC50: MTT, mean ± SEM
Experimental: as §1

[1] = system: WI-38 normal lung fibroblast cell line; experiment: MTT cell proliferation assay; conditions: for IC50: normal cell line, MTT, mean ± SEM
Experimental: as §1

PC3 = experiment: MTT cell proliferation assay; conditions: for IC50: MTT, mean ± SEM
Experimental: as §1

MDA-MB-231 = experiment: MTT cell proliferation assay; conditions: for IC50: MTT, mean ± SEM, read-out: IC50 MDA-MB231
Experimental: as §1

MDA-MB-231 cells [2] = experiment: Mitochondrial membrane potential by JC1 staining (fluorescence microscopy and flow cytometry); conditions: for cellular population with increase in JC1 green fluorescence intensity (flow cytometry): control 3.93%
Experimental: The changes in mitochondrial membrane permeability were determined by JC1 (molecular probes). MDA-MB-231 cells were treated with compound 3 (0.25 µM, 0.5 µM, and 1 µM) for the indicated time period, harvested, washed twice in 1 × PBS, resuspended in PBS supplemented with JC1 dye (3 µM final concentration), and incubated for 15 min in the dark at 37°C and flow cytometric analysis was immediately performed using a FACSVerse instrument (BD) or images were captured with fluorescent microscope (Leica).

MDA-MB-231 cells [3] = experiment: Annexin V-FITC/PI staining apoptosis assay (flow cytometry); conditions: for annexin-V-FITC+/PI− (early apoptotic) and annexin V-FITC+/PI+ (late apoptotic) cell population: control 0.01%
Experimental: Induction of apoptosis was quantified via flow cytometric analysis of control ([…]) and cells treated with complex 3 (0.25 µM, 0.5 µM, and 1 µM) that were stained with annexin V-FITC/PI [50], using the Annexin V-FITC apoptosis detection kit according to the manufacturer's protocol (BD Bioscience). Post treatment cells were harvested with 1 × trypsin and washed in ice 1 × PBS followed by resuspension in 100 µL of 1 × binding buffer solution supplied within the kit. Finally, cells were incubated with 5 μL of annexin V-FITC and 5 μL of PI for 15 min at room temperature in the dark before acquiring data using BD FACSVerse flow cytometer (BD Biosciences, San Jose, CA). Annexin V/FITC positive cells were regarded as apoptotic cells analyzed using Cell Quest software (BD Biosciences).

MDA-MB-231 cells [4] = experiment: Cellular ROS measurement using DCFDA (fluorescence microscopy and flow cytometry)
Experimental: To measure the production of intercellular reactive oxygen species (ROS) produced by treatment with complex 3, the DCFDA method was used. MDA-MB-231 cells were seeded in a 6-well plate and treated with complex 3 (0.25 µM, 0.5 µM, and 1 µM) for 24 h using arsenic as a positive control agent and NAC as negative control. Post treatment, the media was discarded and incubated with 10 µM H2DCFDA for 30 min at 37°C. For fluorescence imaging, cells incubated with H2DCFDA were washed, resuspended in 1 × PBS, and directly imaged under a fluorescence microscope (Leica). For flow cytometric analysis, cells were then trypsinized, washed with 1 × PBS, and collected in centrifuge tubes. DCF fluorescence was measured using BD FACSVerse flow cytometer (BD Biosciences) and analyzed using Cell Quest software (BD Biosciences).

MDA-MB-231 cells [5] = experiment: Cell cycle profiling by propidium iodide staining (flow cytometry); conditions: 1.0 µM, 24 h, mean ± SEM
Experimental: MDA-MB-231 cells were seeded at a density of 1 × 10^6 cells/mL in each Petri dish for 24 h. Thereafter, the cells were treated with increasing concentration of complex 3 (0.25 µM, 0.5 µM, and 1 µM) for 24 h and 0.5% DMSO was added in the control setup. Post treatment, cells were harvested into single cell suspension and fixed by 75% ethanol for 24 h. at −20°C. After centrifugation, the cells pellets were resuspended in 1 × PBS followed by RNaseA (20 μM) treatment for 2 h at 37°C. Finally, propidium iodide was added and incubated at room temperature for 20 min. Subsequently, the samples were measured using BD FACSVerse flow cytometer (BD Biosciences, San Jose, CA) and analyzed using BD FACS DIVA software.

N.N.[Cl][Pt][Cl] [Cisplatin, cisplatin, reference compound]
IC50 (HepG2; 24 h): 11.5 ± 2.06 µM
IC50 (HeLa): 3.26 ± 0.23 µM
IC50 ([1]; 24 h): 20.6 ± 1.52 µM
IC50 (PC3; 24 h): 5.36 ± 1.24 µM
IC50 (MDA-MB-231; 24 h): 8.25 ± 1.64 µM
JC1 aggregate/JC1 monomer fluorescence intensity ratio (fluorescence microscopy) (MDA-MB-231 cells [2]; 8 µM): 0.25 ± 0.06
early apoptotic cell population (LR quadrant) (MDA-MB-231 cells [3]; 8 µM, positive control): 44.46%
late apoptotic cell population (UR quadrant) (MDA-MB-231 cells [3]; 8 µM, positive control): 18.52%

CC(=N\NC(=O)c1ccncc1)/C(C)=N/NC(N)=S [L ^ 1 H 2, Diacetyl-2-(Thiosemicarbazone)-3-(Isonicotinichydrazone)]
IC50 (HepG2; Homo sapiens, HepG2, 24 h): 5.14 ± 0.52 µM
IC50 (HeLa; Homo sapiens, HeLa): 1.06 ± 0.21 µM
IC50 ([1]; Homo sapiens, WI-38, 24 h): 10.8 ± 0.96 µM
IC50 (PC3; Homo sapiens, PC-3, 24 h): 4.86 ± 0.75 µM
IC50 (MDA-MB-231; Homo sapiens, MDA-MB-231, 24 h): 2.42 ± 0.33 µM

CC(=N\NC(=O)c1ccncc1)/C(C)=N/NC(N)=S [[L ^ 1 H 3 ]Cl] [Diacetyl-2-(Thiosemicarbazone)-3-(Isonicotinichydrazonium) Chloride]
IC50 (HepG2; 24 h): 6.27 ± 0.98 µM
IC50 (HeLa): 1.49 ± 0.46 µM
IC50 ([1]; 24 h): 14.1 ± 0.48 µM
IC50 (PC3; 24 h): 3.49 ± 0.73 µM
IC50 (MDA-MB-231; 24 h): 2.48 ± 0.47 µM

[As] [arsenic, reference compound]
mean fluorescence intensity (MFI), fold change in comparison with the control (H2DCFDA, flow cytometry) (MDA-MB-231 cells [4]; 1 µM, 24 h): 4.91 ± 0.05 fold
fold increase of green fluorescence intensity (H2DCFDA, fluorescence microscopy) (MDA-MB-231 cells [4]; positive control, concentration not given): 4.28 ± 0.09 fold

CC1=[N+]2N=C(N)[S][Sn-2]23([CH3])([CH3])[O]C(c2ccncc2)=N[N+]3=C1C [complex 1, [SnMe2L^1]n]
IC50 (HepG2; 24 h): 4.97 ± 0.76 µM
IC50 (HeLa): 2.22 ± 0.54 µM
IC50 ([1]; 24 h): 15.6 ± 0.73 µM
IC50 (PC3; 24 h): 2.76 ± 0.52 µM
IC50 (MDA-MB-231; 24 h): 3.54 ± 0.34 µM

CC1=[N+]2N=C(N)[S][Sn-2]23([c]2ccccc2)([c]2ccccc2)[O]C(c2ccncc2)=N[N+]3=C1C [complex 3, [SnPh2L^1]n]
mean fluorescence intensity (MFI), fold change in comparison with the control (H2DCFDA, flow cytometry) (MDA-MB-231 cells [4]; 0.25 µM, 24 h): 1.47 ± 0.17 fold
mean fluorescence intensity (MFI), fold change in comparison with the control (H2DCFDA, flow cytometry) (MDA-MB-231 cells [4]; 0.5 µM, 24 h): 2.58 ± 0.23 fold
ROS generation / MFI in cells pretreated with N-acetylcysteine (NAC) (MDA-MB-231 cells [4]; 1 µM, 10 mM NAC pretreatment, compared to complex 3 alone): reduce the generation of ROS; also recorded: decrease in the MFI value
fold increase in fluorescence intensity in comparison to control (H2DCFDA, fluorescence microscopy) (MDA-MB-231 cells [4]; 1 µM, 24 h): 3.57 ± 0.08 fold
mean fluorescence intensity (MFI), fold change in comparison with the control (H2DCFDA, flow cytometry) (MDA-MB-231 cells [4]; 1 µM, 24 h): 4.73 ± 0.14 fold
Percentage of cell viability HepG2 (HepG2; 0.25 µM, 24 h): 80.36%
Percentage of cell viability HepG2 (HepG2; 0.5 µM, 24 h): 70.36%
Percentage of cell viability HepG2 (HepG2; 1 µM, 24 h): 58.39%
Percentage of cell viability HepG2 (HepG2; 2 µM, 24 h): 45.27%
Percentage of cell viability HepG2 (HepG2; 5 µM, 24 h): 30.68%
IC50 (HepG2; 24 h): 1.59 ± 0.17 µM
Percentage of cell viability Hela (HeLa; 0.25 µM): 70%
Percentage of cell viability Hela (HeLa; 0.5 µM): 46.24%
Percentage of cell viability Hela (HeLa; 1 µM): 30.21%
Percentage of cell viability Hela (HeLa; 2 µM): 25.19%
Percentage of cell viability Hela (HeLa; 5 µM): 20.16%
Percentage of cell viability WI-38 ([1]; 0.25 µM, 24 h): 98.36%
Percentage of cell viability WI-38 ([1]; 0.5 µM, 24 h): 95.32%
Percentage of cell viability WI-38 ([1]; 1 µM, 24 h): 80.17%
Percentage of cell viability WI-38 ([1]; 2 µM, 24 h): 76.21%
Percentage of cell viability WI-38 ([1]; 5 µM, 24 h): 70.24%
IC50 ([1]; 24 h): 15.7 ± 0.28 µM
Percentage of cell viability PC3 (PC3; 0.25 µM, 24 h): 82.17%
Percentage of cell viability PC3 (PC3; 0.5 µM, 24 h): 76.09%
Percentage of cell viability PC3 (PC3; 1 µM, 24 h): 60.16%
Percentage of cell viability PC3 (PC3; 2 µM, 24 h): 48.24%
Percentage of cell viability PC3 (PC3; 5 µM, 24 h): 35.73%
IC50 (PC3; 24 h): 1.97 ± 0.24 µM
Percentage of cell viability MDA-MB 231 (MDA-MB-231; 0.25 µM, 24 h): 65.43%
Percentage of cell viability MDA-MB 231 (MDA-MB-231; 0.5 µM, 24 h): 50.06%
Percentage of cell viability MDA-MB 231 (MDA-MB-231; 1 µM, 24 h): 28.63%
Percentage of cell viability MDA-MB 231 (MDA-MB-231; 2 µM, 24 h): 20.19%
Percentage of cell viability MDA-MB 231 (MDA-MB-231; 5 µM, 24 h): 18.37%
IC50 (MDA-MB-231; 24 h): 0.51 ± 0.13 µM
JC1 aggregate/JC1 monomer fluorescence intensity ratio (fluorescence microscopy) (MDA-MB-231 cells [2]; 0.25 µM, 24 h): 1.36 ± 0.78
cellular population with increase in JC1 green fluorescence intensity (flow cytometry) (MDA-MB-231 cells [2]; 0.25 µM, 24 h): 37.47%
cellular population with increase in JC1 green fluorescence intensity (flow cytometry) (MDA-MB-231 cells [2]; 0.5 µM, 24 h): 52.22%
JC1 aggregate/JC1 monomer fluorescence intensity ratio (fluorescence microscopy) (MDA-MB-231 cells [2]; 1 µM, 24 h): 0.27 ± 0.13
cellular population with increase in JC1 green fluorescence intensity (flow cytometry) (MDA-MB-231 cells [2]; 1 µM, 24 h): 74.51%
early apoptotic cell population (LR quadrant) (MDA-MB-231 cells [3]; 0.25 µM, 24 h): 15.99%
late apoptotic cell population (UR quadrant) (MDA-MB-231 cells [3]; 0.25 µM, 24 h): 5.24%
annexin-V-FITC+/PI− (early apoptotic) and annexin V-FITC+/PI+ (late apoptotic) cell population (MDA-MB-231 cells [3]; 0.25 µM, 24 h): 21.23%
early apoptotic cell population (LR quadrant) (MDA-MB-231 cells [3]; 0.5 µM, 24 h): 36.25%
late apoptotic cell population (UR quadrant) (MDA-MB-231 cells [3]; 0.5 µM, 24 h): 21.56%
annexin-V-FITC+/PI− (early apoptotic) and annexin V-FITC+/PI+ (late apoptotic) cell population (MDA-MB-231 cells [3]; 0.5 µM, 24 h): 57.81%
early apoptotic cell population (LR quadrant) (MDA-MB-231 cells [3]; 1 µM, 24 h): 32.32%
late apoptotic cell population (UR quadrant) (MDA-MB-231 cells [3]; 1 µM, 24 h): 34.15%
annexin-V-FITC+/PI− (early apoptotic) and annexin V-FITC+/PI+ (late apoptotic) cell population (MDA-MB-231 cells [3]; 1 µM, 24 h): 66.47%
necrotic cell population zone (MDA-MB-231 cells [3]; 0.25, 0.5 and 1 µM, 24 h): No significant cell population
G2/M cell population (G2/M arrest) (MDA-MB-231 cells [5]): 56.07%

Source: article PMC11006503, “New Tin (IV) and Organotin (IV) Complexes with a Hybrid Thiosemicarbazone/Hydrazone Ligand: Synthesis, Crystal Structure, and Antiproliferative Activity” (Bioinorganic Chemistry and Applications, 2024)
